Data from publication PMC6437697 (Journal of Medicinal Chemistry, 2019).

Columns and labels:
Experiment in all cases: KINOMEscan
Format in all cases: binding
Conditions in all cases: read-out: % control activity remaining
[1] = biological target: T1, ABL1(F317I)-nonphosphorylated (Homo sapiens, UniProt P00519, F317I)
T1 construct: purchased Eurofins DiscoverX KINOMEscan

PRKCH = biological target: T2, PRKCH (Homo sapiens, UniProt P24723)
T2 construct: purchased Eurofins DiscoverX KINOMEscan

MAP3K15 = biological target: T3, MAP3K15 (Homo sapiens, UniProt Q6ZN16)
T3 construct: purchased Eurofins DiscoverX KINOMEscan
T3 sequence (Q6ZN16 1-1313): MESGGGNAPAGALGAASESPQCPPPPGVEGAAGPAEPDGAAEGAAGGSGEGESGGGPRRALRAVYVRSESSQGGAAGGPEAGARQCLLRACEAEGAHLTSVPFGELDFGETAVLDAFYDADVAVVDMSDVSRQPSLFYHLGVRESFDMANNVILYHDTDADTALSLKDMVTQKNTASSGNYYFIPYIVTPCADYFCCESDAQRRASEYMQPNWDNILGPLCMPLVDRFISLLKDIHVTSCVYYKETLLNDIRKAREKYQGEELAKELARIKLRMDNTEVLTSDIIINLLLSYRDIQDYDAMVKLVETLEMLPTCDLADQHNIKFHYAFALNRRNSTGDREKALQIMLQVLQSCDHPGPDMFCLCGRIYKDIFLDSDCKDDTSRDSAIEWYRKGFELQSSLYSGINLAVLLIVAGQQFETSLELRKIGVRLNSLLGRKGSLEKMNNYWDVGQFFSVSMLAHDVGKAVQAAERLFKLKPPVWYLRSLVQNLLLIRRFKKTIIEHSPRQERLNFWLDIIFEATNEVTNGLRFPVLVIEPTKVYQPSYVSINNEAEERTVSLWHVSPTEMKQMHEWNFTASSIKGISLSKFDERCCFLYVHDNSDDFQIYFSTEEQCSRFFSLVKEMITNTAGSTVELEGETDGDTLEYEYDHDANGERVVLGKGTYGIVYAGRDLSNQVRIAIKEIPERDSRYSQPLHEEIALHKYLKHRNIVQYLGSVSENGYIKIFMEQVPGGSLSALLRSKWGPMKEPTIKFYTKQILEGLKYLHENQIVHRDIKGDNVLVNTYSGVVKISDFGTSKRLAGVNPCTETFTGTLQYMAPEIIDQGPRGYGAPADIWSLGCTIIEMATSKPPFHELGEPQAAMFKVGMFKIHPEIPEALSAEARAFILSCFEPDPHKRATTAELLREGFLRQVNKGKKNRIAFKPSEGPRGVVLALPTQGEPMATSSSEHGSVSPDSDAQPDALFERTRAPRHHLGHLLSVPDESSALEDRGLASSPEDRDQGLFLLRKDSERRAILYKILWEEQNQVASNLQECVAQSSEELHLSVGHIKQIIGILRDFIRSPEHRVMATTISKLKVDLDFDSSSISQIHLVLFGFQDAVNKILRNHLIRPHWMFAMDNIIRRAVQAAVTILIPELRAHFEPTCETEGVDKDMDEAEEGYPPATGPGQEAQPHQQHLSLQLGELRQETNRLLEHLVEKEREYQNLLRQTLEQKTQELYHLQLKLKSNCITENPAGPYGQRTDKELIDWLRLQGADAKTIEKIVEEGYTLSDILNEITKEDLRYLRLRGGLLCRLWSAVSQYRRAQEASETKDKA

AMPK-alpha1 = biological target: T4, AMPK-alpha1 (Homo sapiens, UniProt Q13131)
T4 construct: purchased Eurofins DiscoverX KINOMEscan

MST3 = biological target: T5, MST3 (Homo sapiens, UniProt Q9Y6E0)
T5 construct: purchased Eurofins DiscoverX KINOMEscan

MYO3B = biological target: T6, MYO3B (Homo sapiens, UniProt Q8WXR4)
T6 construct: purchased Eurofins DiscoverX KINOMEscan
T6 sequence (Q8WXR4 1-1341): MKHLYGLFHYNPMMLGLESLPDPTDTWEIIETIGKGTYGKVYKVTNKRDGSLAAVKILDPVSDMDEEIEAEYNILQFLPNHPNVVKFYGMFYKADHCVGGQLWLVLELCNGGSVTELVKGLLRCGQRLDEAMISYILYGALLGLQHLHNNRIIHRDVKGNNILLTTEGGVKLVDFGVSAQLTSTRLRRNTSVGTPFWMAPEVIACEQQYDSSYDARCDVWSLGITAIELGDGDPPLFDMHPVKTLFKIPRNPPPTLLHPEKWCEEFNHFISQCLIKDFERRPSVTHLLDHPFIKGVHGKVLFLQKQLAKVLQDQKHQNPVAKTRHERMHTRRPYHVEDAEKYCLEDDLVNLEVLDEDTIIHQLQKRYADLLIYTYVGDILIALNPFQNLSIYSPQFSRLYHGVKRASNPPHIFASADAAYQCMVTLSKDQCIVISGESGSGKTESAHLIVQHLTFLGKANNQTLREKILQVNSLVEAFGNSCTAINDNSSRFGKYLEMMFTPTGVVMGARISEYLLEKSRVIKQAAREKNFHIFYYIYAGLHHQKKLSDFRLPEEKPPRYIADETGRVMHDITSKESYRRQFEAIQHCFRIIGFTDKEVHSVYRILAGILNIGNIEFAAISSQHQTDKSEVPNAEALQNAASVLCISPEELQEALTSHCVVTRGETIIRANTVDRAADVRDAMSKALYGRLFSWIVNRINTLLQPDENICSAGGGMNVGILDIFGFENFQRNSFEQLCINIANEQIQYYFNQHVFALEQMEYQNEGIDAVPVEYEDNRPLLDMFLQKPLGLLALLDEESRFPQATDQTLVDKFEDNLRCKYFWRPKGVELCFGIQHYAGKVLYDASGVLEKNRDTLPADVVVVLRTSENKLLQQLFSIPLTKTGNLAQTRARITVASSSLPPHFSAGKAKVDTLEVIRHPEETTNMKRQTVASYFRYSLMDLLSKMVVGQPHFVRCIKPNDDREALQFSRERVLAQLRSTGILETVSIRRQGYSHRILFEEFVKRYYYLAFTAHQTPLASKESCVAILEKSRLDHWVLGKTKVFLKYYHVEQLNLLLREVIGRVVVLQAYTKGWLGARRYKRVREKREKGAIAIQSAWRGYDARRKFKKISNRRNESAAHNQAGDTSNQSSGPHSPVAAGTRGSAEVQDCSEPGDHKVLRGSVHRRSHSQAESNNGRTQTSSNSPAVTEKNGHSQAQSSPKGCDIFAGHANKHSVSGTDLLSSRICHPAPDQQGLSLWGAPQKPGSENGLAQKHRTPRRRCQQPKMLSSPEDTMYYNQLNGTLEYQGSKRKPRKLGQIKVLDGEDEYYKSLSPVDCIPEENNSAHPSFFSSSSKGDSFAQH

T2 sequence (P24723 whole entry): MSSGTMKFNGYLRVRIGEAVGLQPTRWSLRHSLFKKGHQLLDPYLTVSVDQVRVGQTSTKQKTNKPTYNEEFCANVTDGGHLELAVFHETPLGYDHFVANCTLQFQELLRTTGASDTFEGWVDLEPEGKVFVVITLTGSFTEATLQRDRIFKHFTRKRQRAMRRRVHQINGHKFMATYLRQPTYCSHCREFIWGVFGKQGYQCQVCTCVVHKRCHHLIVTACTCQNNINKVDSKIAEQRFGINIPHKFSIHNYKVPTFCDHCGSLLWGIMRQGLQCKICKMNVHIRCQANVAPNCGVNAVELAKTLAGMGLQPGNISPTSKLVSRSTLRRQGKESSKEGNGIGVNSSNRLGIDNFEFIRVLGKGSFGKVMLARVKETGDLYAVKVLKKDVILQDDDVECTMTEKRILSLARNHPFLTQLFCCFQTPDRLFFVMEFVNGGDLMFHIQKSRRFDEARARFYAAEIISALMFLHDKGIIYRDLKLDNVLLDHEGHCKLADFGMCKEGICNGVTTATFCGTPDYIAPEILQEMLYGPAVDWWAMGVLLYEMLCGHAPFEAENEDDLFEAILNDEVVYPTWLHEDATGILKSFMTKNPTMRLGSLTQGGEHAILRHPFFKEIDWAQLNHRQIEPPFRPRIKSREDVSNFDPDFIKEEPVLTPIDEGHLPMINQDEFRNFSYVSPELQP
T5 sequence (Q9Y6E0 whole entry): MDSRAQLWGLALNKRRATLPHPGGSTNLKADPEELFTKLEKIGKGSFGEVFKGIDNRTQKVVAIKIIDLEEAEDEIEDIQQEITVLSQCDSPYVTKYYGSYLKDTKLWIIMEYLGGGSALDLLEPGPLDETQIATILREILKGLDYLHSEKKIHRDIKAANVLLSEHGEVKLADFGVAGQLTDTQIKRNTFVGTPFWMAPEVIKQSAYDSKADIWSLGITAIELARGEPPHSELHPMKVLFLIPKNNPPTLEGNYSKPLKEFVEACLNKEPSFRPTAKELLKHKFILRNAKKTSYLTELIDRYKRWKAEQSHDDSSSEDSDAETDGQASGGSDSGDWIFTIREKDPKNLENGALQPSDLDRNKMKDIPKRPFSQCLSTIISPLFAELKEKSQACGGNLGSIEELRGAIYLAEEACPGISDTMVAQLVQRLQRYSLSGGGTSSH
T4 sequence (Q13131 whole entry): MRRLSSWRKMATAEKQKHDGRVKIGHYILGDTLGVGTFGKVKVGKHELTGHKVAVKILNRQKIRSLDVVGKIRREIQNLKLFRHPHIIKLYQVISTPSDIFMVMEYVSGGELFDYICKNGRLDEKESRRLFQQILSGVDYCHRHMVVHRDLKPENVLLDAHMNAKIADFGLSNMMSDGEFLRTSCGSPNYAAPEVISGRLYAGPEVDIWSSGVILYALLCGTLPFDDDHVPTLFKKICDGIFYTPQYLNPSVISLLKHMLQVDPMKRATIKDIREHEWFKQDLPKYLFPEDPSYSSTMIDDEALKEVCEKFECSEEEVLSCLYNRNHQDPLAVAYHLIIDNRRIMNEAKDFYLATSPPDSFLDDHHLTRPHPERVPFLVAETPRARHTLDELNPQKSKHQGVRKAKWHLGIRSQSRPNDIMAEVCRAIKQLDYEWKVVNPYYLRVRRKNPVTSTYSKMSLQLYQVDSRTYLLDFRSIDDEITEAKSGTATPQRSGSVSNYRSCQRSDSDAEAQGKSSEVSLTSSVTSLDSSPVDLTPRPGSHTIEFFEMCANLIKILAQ
T1 sequence (P00519 whole entry F317I): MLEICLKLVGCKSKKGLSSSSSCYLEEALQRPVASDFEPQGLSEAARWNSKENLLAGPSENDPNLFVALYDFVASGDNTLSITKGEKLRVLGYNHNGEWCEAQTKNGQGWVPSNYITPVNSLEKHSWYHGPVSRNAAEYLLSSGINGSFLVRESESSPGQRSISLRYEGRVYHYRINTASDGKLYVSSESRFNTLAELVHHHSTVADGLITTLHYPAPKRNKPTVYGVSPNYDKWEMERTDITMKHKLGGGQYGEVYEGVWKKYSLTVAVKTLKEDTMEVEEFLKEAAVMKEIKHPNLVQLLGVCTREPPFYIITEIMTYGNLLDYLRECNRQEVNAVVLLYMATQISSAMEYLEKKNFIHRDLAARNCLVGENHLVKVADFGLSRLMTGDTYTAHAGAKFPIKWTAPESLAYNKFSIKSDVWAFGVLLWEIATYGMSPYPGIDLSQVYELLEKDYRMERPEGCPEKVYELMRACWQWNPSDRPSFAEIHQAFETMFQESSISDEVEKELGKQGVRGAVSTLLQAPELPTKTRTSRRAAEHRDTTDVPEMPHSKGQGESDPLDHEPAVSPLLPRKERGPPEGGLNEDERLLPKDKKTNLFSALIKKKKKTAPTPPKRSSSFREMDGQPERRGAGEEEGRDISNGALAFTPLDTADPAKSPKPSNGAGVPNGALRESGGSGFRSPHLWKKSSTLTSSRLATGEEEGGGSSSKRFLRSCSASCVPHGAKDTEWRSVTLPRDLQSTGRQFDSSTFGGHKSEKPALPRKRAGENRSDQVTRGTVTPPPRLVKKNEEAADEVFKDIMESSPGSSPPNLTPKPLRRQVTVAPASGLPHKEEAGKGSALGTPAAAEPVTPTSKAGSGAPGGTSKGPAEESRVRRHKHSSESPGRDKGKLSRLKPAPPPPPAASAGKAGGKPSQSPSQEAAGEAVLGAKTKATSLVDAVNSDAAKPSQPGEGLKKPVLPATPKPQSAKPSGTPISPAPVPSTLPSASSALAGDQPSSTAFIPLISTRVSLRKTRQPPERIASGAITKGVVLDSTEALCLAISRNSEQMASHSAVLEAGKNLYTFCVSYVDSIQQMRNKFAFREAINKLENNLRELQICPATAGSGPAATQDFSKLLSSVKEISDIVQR

Compound | remaining binding at 1 µM [1] [%] | remaining binding at 1 µM (PRKCH) [%] | remaining binding at 1 µM (MAP3K15) [%] | remaining binding at 1 µM (AMPK-alpha1) [%] | remaining binding at 1 µM (MST3) [%] | remaining binding at 1 µM (MYO3B) [%]
CN1CCC(CNc2cc(Cl)nn3c(-c4cc5nc(Nc6ccccc6)[nH]c5cc4F)cnc23)CC1 [compound 31, 6-Chloro-3-(6-fluoro-2-(phenylamino)-1H-benzo[d]imidazol-5-yl)-N-((1-methylpiperidin-4-yl)methyl)imidazo[1,2-b]pyridazin-8-amine] | 63 | 100 | 100 | 94 | 92 | 73
O=C(CN1CCOCC1)N[C@H]1CC[C@H](Nc2cc(Cl)nn3c(-c4ccc5[nH]ncc5c4)cnc23)CC1 [compound 26] | 28 | 100 | 98 | 85 | 91 | 92
Clc1cc(NCC2CC2)c2ncc(-c3ccc4[nH]ncc4c3)n2n1 [compound 2, 6-Chloro-N-(cyclopropylmethyl)-3-(1H-indazol-5-yl)imidazo[1,2-b]pyridazin-8-amine] | 71 | 96 | 83 | 96 | 100 | 82
